According to article PMC7156458, “Synthetic biology based construction of biological activity-related library of fungal decalin-containing diterpenoid pyrones” (Nature Communications, 2020):
Each block holds one compound with its values, some of them ahead of it.

Biological target: Aβ42 (Homo sapiens, UniProt P05067)
Assay: Th-T (thioflavin-T) assay of Aβ42 aggregation
Assay type: biochemical
Details: for Th-T assay plate reading, mean of three wells (Supplementary Fig. 47): source data, Ab alone and No Ab as controls
[1] = Aβ42 aggregation time course, reading M117
[2] = Aβ42 aggregation time course, reading M118
[3] = Aβ42 aggregation time course, reading M119
[4] = Aβ42 aggregation time course, reading M120
[5] = Aβ42 aggregation time course, reading M121
[6] = Aβ42 aggregation time course, reading M122
[7] = Aβ42 aggregation time course, reading M123
[8] = Aβ42 aggregation time course, reading M124
[9] = Aβ42 aggregation time course, reading M125
[10] = Aβ42 aggregation time course, reading M126
[11] = Aβ42 aggregation time course, reading M127
[12] = Aβ42 aggregation time course, reading M128
[13] = Aβ42 aggregation time course, reading M129
[14] = Aβ42 aggregation time course, reading M130
[15] = Aβ42 aggregation time course, reading M131
[16] = Aβ42 aggregation time course, reading M132
[17] = Aβ42 aggregation time course, reading M133
[18] = Aβ42 aggregation time course, reading M134
[19] = Aβ42 aggregation time course, reading M135
[20] = Aβ42 aggregation time course, reading M136
[21] = Supplementary Fig. 47, reading M137
[22] = Supplementary Fig. 47, reading M138
[23] = Supplementary Fig. 47, reading M139
[24] = Supplementary Fig. 47, reading M140
[25] = Supplementary Fig. 47, reading M141
[26] = Supplementary Fig. 47, reading M142
[27] = Supplementary Fig. 47, reading M143
[28] = Supplementary Fig. 47, reading M144
[29] = Supplementary Fig. 47, reading M145
[30] = reading M17, Supplementary Fig. 47 source data
[31] = time-course reading M97, Supplementary Fig. 47 source data
[32] = time-course reading M98, Supplementary Fig. 47 source data
[33] = time-course reading M99, Supplementary Fig. 47 source data
[34] = time-course reading M100, Supplementary Fig. 47 source data
[35] = time-course reading M101, Supplementary Fig. 47 source data
[36] = time-course reading M102, Supplementary Fig. 47 source data
[37] = time-course reading M103, Supplementary Fig. 47 source data
[38] = time-course reading M104, Supplementary Fig. 47 source data
[39] = time-course reading M105, Supplementary Fig. 47 source data
[40] = time-course reading M106, Supplementary Fig. 47 source data
[41] = time-course reading M107, Supplementary Fig. 47 source data
[42] = time-course reading M108, Supplementary Fig. 47 source data
[43] = time-course reading M109, Supplementary Fig. 47 source data
[44] = time-course reading M110, Supplementary Fig. 47 source data
[45] = time-course reading M111, Supplementary Fig. 47 source data
[46] = time-course reading M112, Supplementary Fig. 47 source data
[47] = time-course reading M113, Supplementary Fig. 47 source data
[48] = time-course reading M114, Supplementary Fig. 47 source data
[49] = time-course reading M115, Supplementary Fig. 47 source data
[50] = time-course reading M116, Supplementary Fig. 47 source data

Aβ42, sequence (P05067 672-713): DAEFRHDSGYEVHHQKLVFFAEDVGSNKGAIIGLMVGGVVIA

Th-T fluorescence, mean of three wells [1]: 2.764
Th-T fluorescence, mean of three wells [2]: 2.782
Th-T fluorescence, mean of three wells [3]: 2.76
Th-T fluorescence, mean of three wells [4]: 2.773
Th-T fluorescence, mean of three wells [5]: 2.751
Th-T fluorescence, mean of three wells [6]: 2.756
Th-T fluorescence, mean of three wells [7]: 2.7381
Th-T fluorescence, mean of three wells [8]: 2.734
Th-T fluorescence, mean of three wells [9]: 2.771
Th-T fluorescence, mean of three wells [10]: 2.764
Th-T fluorescence, mean of three wells [11]: 2.744
Th-T fluorescence, mean of three wells [12]: 2.737
Th-T fluorescence, mean of three wells [13]: 2.759
Th-T fluorescence, mean of three wells [14]: 2.729
Th-T fluorescence, mean of three wells [15]: 2.75
Th-T fluorescence, mean of three wells [16]: 2.778
Th-T fluorescence, mean of three wells [17]: 2.76
Th-T fluorescence, mean of three wells [18]: 2.744
Th-T fluorescence, mean of three wells [19]: 2.723
Th-T fluorescence, mean of three wells [20]: 2.752
Th-T fluorescence, mean of three wells [21]: 2.732
Th-T fluorescence, mean of three wells [22]: 2.752
Th-T fluorescence, mean of three wells [23]: 2.7362
Th-T fluorescence, mean of three wells [24]: 2.723
Th-T fluorescence, mean of three wells [25]: 2.765
Th-T fluorescence, mean of three wells [26]: 2.731
Th-T fluorescence, mean of three wells [27]: 2.798
Th-T fluorescence, mean of three wells [28]: 2.748
Th-T fluorescence, mean of three wells [29]: 2.777
Th-T assay plate reading, mean of three wells (Supplementary Fig. 47) (measurement M1): 0.3186
Th-T assay plate reading, mean of three wells (Supplementary Fig. 47) (measurement M2): 0.3159
Th-T assay plate reading, mean of three wells (Supplementary Fig. 47) (measurement M3): 0.3554
Th-T assay plate reading, mean of three wells (Supplementary Fig. 47) (measurement M4): 0.4086
Th-T assay plate reading, mean of three wells (Supplementary Fig. 47) (measurement M5): 0.4658
Th-T assay plate reading, mean of three wells (Supplementary Fig. 47) (measurement M6): 0.5438
Th-T assay plate reading, mean of three wells (Supplementary Fig. 47) (measurement M7): 0.6121
Th-T assay plate reading, mean of three wells (Supplementary Fig. 47) (measurement M8): 0.6677
Th-T assay plate reading, mean of three wells (Supplementary Fig. 47) (measurement M9): 0.6972
Th-T assay plate reading, mean of three wells (Supplementary Fig. 47) (measurement M10): 0.7395
Th-T assay plate reading, mean of three wells (Supplementary Fig. 47) (measurement M11): 0.7934
Th-T assay plate reading, mean of three wells (Supplementary Fig. 47) (measurement M12): 0.8591
Th-T assay plate reading, mean of three wells (Supplementary Fig. 47) (measurement M13): 0.9703
Th-T assay plate reading, mean of three wells (Supplementary Fig. 47) (measurement M14): 1.131
Th-T assay plate reading, mean of three wells (Supplementary Fig. 47) (measurement M15): 1.366
Th-T assay plate reading, mean of three wells (Supplementary Fig. 47) (measurement M16): 1.644
Th-T fluorescence, mean of three wells [30]: 1.91
Th-T fluorescence, mean of three wells [31]: 2.7952
Th-T fluorescence, mean of three wells [32]: 2.787
Th-T fluorescence, mean of three wells [33]: 2.818
Th-T fluorescence, mean of three wells [34]: 2.783
Th-T fluorescence, mean of three wells [35]: 2.764
Th-T fluorescence, mean of three wells [36]: 2.765
Th-T fluorescence, mean of three wells [37]: 2.763
Th-T fluorescence, mean of three wells [38]: 2.782
Th-T fluorescence, mean of three wells [39]: 2.776
Th-T fluorescence, mean of three wells [40]: 2.782
Th-T fluorescence, mean of three wells [41]: 2.786
Th-T fluorescence, mean of three wells [42]: 2.803
Th-T fluorescence, mean of three wells [43]: 2.779
Th-T fluorescence, mean of three wells [44]: 2.789
Th-T fluorescence, mean of three wells [45]: 2.786
Th-T fluorescence, mean of three wells [46]: 2.79
Th-T fluorescence, mean of three wells [47]: 2.795
Th-T fluorescence, mean of three wells [48]: 2.781
Th-T fluorescence, mean of three wells [49]: 2.739
Th-T fluorescence, mean of three wells [50]: 2.771
SMILES: C=C1CCC2C(C)(CCC=C(C)C)C(O)CCC2(C)C1Cc1c(O)c(C)c(C)oc1=O (stereo not drawn) [Compound 4]

Th-T fluorescence, mean of three wells [1]: 2.792
Th-T fluorescence, mean of three wells [2]: 2.807
Th-T fluorescence, mean of three wells [3]: 2.796
Th-T fluorescence, mean of three wells [4]: 2.799
Th-T fluorescence, mean of three wells [5]: 2.791
Th-T fluorescence, mean of three wells [6]: 2.801
Th-T fluorescence, mean of three wells [7]: 2.8089
Th-T fluorescence, mean of three wells [8]: 2.764
Th-T fluorescence, mean of three wells [9]: 2.798
Th-T fluorescence, mean of three wells [10]: 2.7918
Th-T fluorescence, mean of three wells [11]: 2.782
Th-T fluorescence, mean of three wells [12]: 2.756
Th-T fluorescence, mean of three wells [13]: 2.788
Th-T fluorescence, mean of three wells [14]: 2.772
Th-T fluorescence, mean of three wells [15]: 2.794
Th-T fluorescence, mean of three wells [16]: 2.756
Th-T fluorescence, mean of three wells [17]: 2.787
Th-T fluorescence, mean of three wells [18]: 2.786
Th-T fluorescence, mean of three wells [19]: 2.766
Th-T fluorescence, mean of three wells [20]: 2.788
Th-T fluorescence, mean of three wells [21]: 2.782
Th-T fluorescence, mean of three wells [22]: 2.781
Th-T fluorescence, mean of three wells [23]: 2.778
Th-T fluorescence, mean of three wells [24]: 2.777
Th-T fluorescence, mean of three wells [25]: 2.762
Th-T fluorescence, mean of three wells [26]: 2.77
Th-T fluorescence, mean of three wells [27]: 2.794
Th-T fluorescence, mean of three wells [28]: 2.791
Th-T fluorescence, mean of three wells [29]: 2.767
Th-T assay plate reading, mean of three wells (Supplementary Fig. 47) (measurement M1): 0.2408
Th-T assay plate reading, mean of three wells (Supplementary Fig. 47) (measurement M2): 0.2372
Th-T assay plate reading, mean of three wells (Supplementary Fig. 47) (measurement M3): 0.2484
Th-T assay plate reading, mean of three wells (Supplementary Fig. 47) (measurement M4): 0.2764
Th-T assay plate reading, mean of three wells (Supplementary Fig. 47) (measurement M5): 0.3211
Th-T assay plate reading, mean of three wells (Supplementary Fig. 47) (measurement M6): 0.3818
Th-T assay plate reading, mean of three wells (Supplementary Fig. 47) (measurement M7): 0.386
Th-T assay plate reading, mean of three wells (Supplementary Fig. 47) (measurement M8): 0.4241
Th-T assay plate reading, mean of three wells (Supplementary Fig. 47) (measurement M9): 0.4754
Th-T assay plate reading, mean of three wells (Supplementary Fig. 47) (measurement M10): 0.5222
Th-T assay plate reading, mean of three wells (Supplementary Fig. 47) (measurement M11): 0.5741
Th-T assay plate reading, mean of three wells (Supplementary Fig. 47) (measurement M12): 0.6179
Th-T assay plate reading, mean of three wells (Supplementary Fig. 47) (measurement M13): 0.6443
Th-T assay plate reading, mean of three wells (Supplementary Fig. 47) (measurement M14): 0.6952
Th-T assay plate reading, mean of three wells (Supplementary Fig. 47) (measurement M15): 0.7748
Th-T assay plate reading, mean of three wells (Supplementary Fig. 47) (measurement M16): 1.021
Th-T fluorescence, mean of three wells [30]: 1.394
Th-T fluorescence, mean of three wells [31]: 2.816
Th-T fluorescence, mean of three wells [32]: 2.842
Th-T fluorescence, mean of three wells [33]: 2.834
Th-T fluorescence, mean of three wells [34]: 2.825
Th-T fluorescence, mean of three wells [35]: 2.818
Th-T fluorescence, mean of three wells [36]: 2.832
Th-T fluorescence, mean of three wells [37]: 2.816
Th-T fluorescence, mean of three wells [38]: 2.8075
Th-T fluorescence, mean of three wells [39]: 2.8016
Th-T fluorescence, mean of three wells [40]: 2.808
Th-T fluorescence, mean of three wells [41]: 2.794
Th-T fluorescence, mean of three wells [42]: 2.811
Th-T fluorescence, mean of three wells [43]: 2.783
Th-T fluorescence, mean of three wells [44]: 2.799
Th-T fluorescence, mean of three wells [45]: 2.807
Th-T fluorescence, mean of three wells [46]: 2.812
Th-T fluorescence, mean of three wells [47]: 2.81
Th-T fluorescence, mean of three wells [48]: 2.8
Th-T fluorescence, mean of three wells [49]: 2.812
Th-T fluorescence, mean of three wells [50]: 2.796
SMILES: C=C1CCC2C(C)(CCC=C(C)C)C(O)CCC2(C)C1Cc1c(O)c(C)c(C)oc1=O (stereo not drawn) [Compound 9, higginsianin B]
